# How the values were obtained:
# Assay in all cases: anti-phage ELISA, relative SH3 binding activity of phage clones
# Lck-SH3 = system: Lck-SH3; parameters: species or system menschlichen; settings: phage-displayed peptide, Fig. 2f; binding to Lck-SH3 compared with other SH3 domains
# Description: (§1) "anti-Phage-ELISA" - Bestimmung der relativen SH3-Bindungsaktivität einzelner Phagenklone
# (§2) Dieser Bindungstest ist ein häufig verwendeter Test zur schnellen Bestimmung relativer Bindungsstärken selektierter Peptide, die hierbei noch physikalisch mit dem Phagen verknüpft vorliegen. Dieser Schritt dient auch zur Eliminierung von (bei dieser Methode nicht selten auftretenden) Phagenvarianten, die z. B. aufgrund ihrer Affinität zur Plastikoberfläche der verwendeten Mikrotiterplatten, angereichert werden und die somit zur Verfälschung der Ergebnisse führen können. Eine grundsätzliche Beschreibung der Methode findet sich z. B. unter Sparks et al. Methods Enzymol. 1995; 255:498-509.
# (§3) GST-SH3 Protein wurde in einer Konzentration von 1-10 µg/ml in Tris-Bis über Nacht bei 4°C in Mikrotiterplatten immobilisiert. Verbleibende Bindungsstellen wurden durch 2-stündige Inkubation mit Blockierungspuffer (Bis-Tris mit 2 % Magermilchpulver) abgesättigt. In einer anderen Mikrotiterplatte wurden zuerst je 100 µl Suspension der zu testenden Phagenvariante mit 100 µl Blockierungspuffer für 20 Minuten vorinkubiert und erst dann für 1 Stunde zum immobilisierten GST-SH3 Protein gegeben. Nach einem Waschschritt mit Bis-Tris wurde ein Meerrettich-Peroxidase-konjugierter Antikörper zugegeben und die Platten für eine weitere Stunde inkubiert. […]
# Lyn-SH3 = settings: phage-displayed peptide, Fig. 2f; binding to Lyn-SH3 compared with Lck-SH3
# Description: as §1, §2, §3
# Hck-SH3 = settings: phage-displayed peptide, Fig. 2f; binding to Hck-SH3 compared with Lck-SH3
# Description: as §1, §2, §3
sequence,measurement,setting,value
"HSKYPLPPLPSL [PD1, control peptide from standard selection with Lck-SH3 as bait]",relative SH3-Bindungsaktivität,Lck-SH3,nicht die stärkste Bindung
same,relative SH3-Bindungsaktivität,Lyn-SH3,ähnlich gut
same,relative SH3-Bindungsaktivität,Hck-SH3,ähnlich gut

# Reference: EP2472259B1, “Specific molecules clinging to a lure” (Forschungszentrum Jülich GmbH, priority 2006, dated 2014)
